The target in experiment [1] is GCGR (Homo sapiens, UniProt P47871, Q131A). In words: Whole-cell binding assay, competition with 125I-GCG. On the set-up: V5 (C); 6×His (C); expressed in transfected cells; host or cells: CHO-K1. The following applies: GCGR Q131A, CHO-K1. The essentials: (§1)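 CHO-K1 cells transiently transfected with WT or mutant receptor constructs, washed in F-12 with 0.1% BSA or casein/33 mM HEPES and incubated 2 h at 37 °C. Bound radioactivity counted after Triton lysis; data normalized to WT and fitted to a three-parameter logistic equation.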

Experiment [2] has as its target GCGR (Homo sapiens, UniProt P47871, Y138A). The experiment is described as above. On the set-up: V5 (C); 6×His (C); expressed in transfected cells; host or cells: CHO-K1. The following applies: GCGR Y138A, CHO-K1. The essentials: as §1
Experiment [3] concerns the target GCGR (Homo sapiens, UniProt P47871, Y145A). The experiment is described as above. Also noted: V5 (C); 6×His (C); expressed in transfected cells; host or cells: CHO-K1. The following applies: GCGR Y145A, CHO-K1. In a few lines:
as §1

Experiment [4] deals with GLP-1R (Homo sapiens, UniProt P43220, Q210A). Nature of the experiment: cAMP accumulation assay, GLP-1R WT, mutant or modified constructs. Type of experiment: cell-based. Also noted: Flag; expressed in transfected cells; host or cells: HEK293T. The following applies: GLP-1R Q210A, HEK293T. In a few lines: (§2)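 HEK293T cells transiently expressing wild-type, mutant or modified human GLP-1R (HA signal peptide constructs) were used. Cells were stimulated with peptide agonists for 40 min at room temperature in HBSS with 0.5 mM IBMX and 0.1% BSA or casein. cAMP was quantified by LANCE Ultra TR-FRET (620/650 nm).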
(In general: Cyclic AMP is a second messenger, typically raised through Gs and lowered through Gi signalling.)

Experiment [5] addresses GLP-1R (Homo sapiens, UniProt P43220, K202A). Described as above. The experiment is classed as cell-based. Also noted: Flag; expressed in transfected cells; host or cells: HEK293T. Particulars: GLP-1R K202A, HEK293T. In a few lines: as §2
Experiment [6] has as its target GLP-1R (Homo sapiens, UniProt P43220, R134A). Described as above. On the set-up: Flag; expressed in transfected cells; host or cells: HEK293T. The experiment is classed as cell-based. The following applies: GLP-1R R134A, HEK293T. In a few lines: as §2
In experiment [7] the target is GLP-1R (Homo sapiens, UniProt P43220, D198A). The experiment is described as above. The experiment is classed as cell-based. On the set-up: Flag; expressed in transfected cells; host or cells: HEK293T. Particulars: GLP-1R D198A, HEK293T. In a few lines:
as §2

The target in experiment [8] is GLP-1R (Homo sapiens, UniProt P43220, Y205A). Described as above. The experiment is classed as cell-based. On the set-up: Flag; expressed in transfected cells; host or cells: HEK293T. Particulars: GLP-1R Y205A, HEK293T. In a few lines: as §2
Experiment [9] deals with GLP-1R (Homo sapiens, UniProt P43220, W91A). Described as above. The experiment is classed as cell-based. On the set-up: Flag; expressed in transfected cells; host or cells: HEK293T. Particulars: GLP-1R W91A, HEK293T. The essentials: as §2
[10] abbreviates: read-out: binding pIC50 (converted).
Setting [11] is: read-out: cAMP pEC50 (converted).

Chain of GCGR (Homo sapiens, UniProt P47871, Q131A) (P47871 26-477 Q131A): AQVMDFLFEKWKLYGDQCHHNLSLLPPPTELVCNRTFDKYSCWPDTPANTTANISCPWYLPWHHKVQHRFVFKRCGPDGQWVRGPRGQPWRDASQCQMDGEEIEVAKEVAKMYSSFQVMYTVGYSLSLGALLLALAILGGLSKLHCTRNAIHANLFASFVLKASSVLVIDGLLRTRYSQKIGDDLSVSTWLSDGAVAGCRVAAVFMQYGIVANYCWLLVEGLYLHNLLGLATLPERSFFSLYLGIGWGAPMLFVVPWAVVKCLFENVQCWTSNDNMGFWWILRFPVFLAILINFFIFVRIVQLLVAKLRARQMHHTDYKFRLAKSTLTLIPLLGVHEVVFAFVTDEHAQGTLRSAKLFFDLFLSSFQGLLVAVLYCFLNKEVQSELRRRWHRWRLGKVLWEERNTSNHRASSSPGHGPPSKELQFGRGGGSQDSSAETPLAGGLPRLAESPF
Chain of GLP-1R (Homo sapiens, UniProt P43220, D198A) (P43220 24-463 D198A): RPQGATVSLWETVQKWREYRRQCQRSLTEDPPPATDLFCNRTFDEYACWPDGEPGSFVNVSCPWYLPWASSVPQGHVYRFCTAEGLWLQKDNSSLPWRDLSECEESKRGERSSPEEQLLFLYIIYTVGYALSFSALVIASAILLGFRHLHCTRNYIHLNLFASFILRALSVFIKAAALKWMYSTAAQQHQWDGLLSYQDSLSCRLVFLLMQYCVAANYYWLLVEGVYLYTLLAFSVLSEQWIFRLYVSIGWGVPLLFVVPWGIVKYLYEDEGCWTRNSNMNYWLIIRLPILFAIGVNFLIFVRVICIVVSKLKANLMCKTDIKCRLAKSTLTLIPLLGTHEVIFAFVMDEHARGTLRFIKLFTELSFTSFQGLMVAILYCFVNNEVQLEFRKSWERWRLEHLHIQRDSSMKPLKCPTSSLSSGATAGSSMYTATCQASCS
Chain of GLP-1R (Homo sapiens, UniProt P43220, K202A) (P43220 24-463 K202A): as the sequence (P43220 24-463 D198A) above, with A175D, K179A counted along it
Chain of GLP-1R (Homo sapiens, UniProt P43220, Y205A) (P43220 24-463 Y205A): as the sequence (P43220 24-463 D198A) above, with A175D, Y182A counted along it
Chain of GLP-1R (Homo sapiens, UniProt P43220, Q210A) (P43220 24-463 Q210A): as the sequence (P43220 24-463 D198A) above, with A175D, Q187A counted along it
Chain of GLP-1R (Homo sapiens, UniProt P43220, R134A) (P43220 24-463 R134A): as the sequence (P43220 24-463 D198A) above, with R111A, A175D counted along it
Chain of GLP-1R (Homo sapiens, UniProt P43220, W91A) (P43220 24-463 W91A): as the sequence (P43220 24-463 D198A) above, with W68A, A175D counted along it
Chain of GCGR (Homo sapiens, UniProt P47871, Y145A) (P47871 26-477 Y145A): as the sequence (P47871 26-477 Q131A) above, with A106Q, Y120A counted along it
Chain of GCGR (Homo sapiens, UniProt P47871, Y138A) (P47871 26-477 Y138A): as the sequence (P47871 26-477 Q131A) above, with A106Q, Y113A counted along it

The Emax is the maximal effect, on the per cent scale that the assay sets. Consider `CCCCCCCCCCCCCCCC(=O)N[C@@H](CCC(=O)NCCCC[C@H](NC(=O)[C@H](CC(=O)O)NC(=O)[C@H](CO)NC(=O)[C@@H](NC(=O)[C@H](Cc1ccccc1)NC(=O)[C@@H](NC(=O)CNC(=O)[C@H](CCC(N)=O)NC(=O)C(C)(C)NC(=O)[C@@H](N)Cc1c[nH]cn1)[C@@H](C)O)[C@@H](C)O)C(=O)N[C@@H](CO)C(=O)N[C@@H](CCCCN)C(=O)N[C@@H](Cc1ccc(O)cc1)C(=O)N[C@@H](CC(C)C)C(=O)N[C@@H](CC(=O)O)C(=O)N[C@@H](CCC(=O)O)C(=O)N[C@@H](CCCNC(=N)N)C(=O)N[C@@H](C)C(=O)N[C@@H](C)C(=O)N[C@@H](CCC(N)=O)C(=O)N[C@@H](CC(=O)O)C(=O)N[C@@H](Cc1ccccc1)C(=O)N[C@H](C(=O)N[C@@H](CCC(N)=O)C(=O)N[C@@H](Cc1c[nH]c2ccccc12)C(=O)N[C@@H](CC(C)C)C(=O)N[C@@H](CC(C)C)C(=O)N[C@@H](CC(=O)O)C(=O)NCC(=O)NCC(=O)N1CCC[C@H]1C(=O)N[C@@H](CO)C(=O)N[C@@H](CO)C(=O)NCC(=O)N[C@@H](C)C(=O)N1CCC[C@H]1C(=O)N1CCC[C@H]1C(=O)N1CCC[C@H]1C(=O)N[C@@H](CO)C(N)=O)C(C)C)C(=O)O` [Peptide 20], for which the figures for the “binding Span” value in experiment [1], in [2] and in experiment [3] were 32.87 ± 3.34 % WT, 2.08 ± 2.48 % WT and 4.34 ± 3.92 % WT, respectively. In addition, the IC50 was 69200 pM in experiment [1] (setting [10]), 1150 pM in experiment [2] (setting [10]) and 457 pM in experiment [3] (setting [10]). Moreover, the EC50 in experiment [4] (setting [11]) was 5.62 pM; in experiment [5] (setting [11]), 2.57 pM; in experiment [6] (setting [11]), 6.61 pM; in experiment [7] (setting [11]), 4.47 pM; in experiment [8] (setting [11]), 8.51 pM; in experiment [9] (setting [11]), 6.03 pM. Also, the maximal response (Emax) in experiment [4] (HEK-293T) is 102 ± 1.27%; in experiment [5] (HEK-293T) it was 100 ± 1.97%; in experiment [6] (HEK-293T), 101 ± 1.08%; in experiment [7] (HEK-293T), 99.9 ± 1.82%; in experiment [8] (HEK-293T), 101 ± 1.08%; in experiment [9] (HEK-293T), 100 ± 1.33%.

Values taken from PMC8881610 (Nature Communications, 2022).
